Where two headings read alike, the source gives them in different places.
Columns and labels:
[1] = system: Zymoseptoria tritici; assay: Leaf Blotch of Wheat fungicidal activity (SEPTTR); assay type: in vivo; settings: for pest or weed control at 121.5 g/ha: Low Volume Cereal Activity at 121.5 g/Ha; for pest or weed control at 100 ppm: wheat, high volume
Protocol: (§1) All fungicides were evaluated using the aforementioned method for their activity vs. all target diseases, unless stated otherwise. Wheat leaf blotch and brown rust activity were also evaluated using track spray applications, in which case the fungicides were formulated as EC formulations, containing 0.1% Trycol 5941 in the spray solutions. Wheat plants (variety Yuma) were grown from seed in a greenhouse in 50% mineral soil/50% soil-less Metro mix until the first leaf was fully emerged, with 7-10 seedlings per pot. These plants were inoculated with an aqueous spore suspension of Zymoseptoria tritici either prior to or after fungicide treatments. After inoculation the plants were kept in 100% relative humidity (one day in a dark dew chamber followed by two to three days in a lighted dew chamber at 20° C.) to permit spores to germinate and infect the leaf. The plants were then transferred to a greenhouse set at 20° C. for disease to develop. When disease symptoms were fully expressed on the 1st leaves of untreated plants, infection levels were assessed on a scale of 0 to 100 percent disease severity. Percent disease control was calculated using the ratio of disease severity on treated plants relative to untreated plants.

[2] = system: Puccinia triticina; assay: Wheat Brown Rust fungicidal activity (PUCCRT); assay type: in vivo; settings: for pest or weed control at 121.5 g/ha: Low Volume Cereal Activity at 121.5 g/Ha; for pest or weed control at 100 ppm: wheat, high volume
Protocol: as §1, with “plants. Wheat plants (variety Yuma) were grown from seed in a greenhouse in 50% mineral soil/50% soil-less Metro mix until the first leaf was fully emerged, with 7-10 seedlings per pot. These plants were inoculated with an aqueous spore suspension of Puccinia triticina either prior to or after fungicide treatments. […] The plants were then transferred to a greenhouse set at 24° C. for disease to develop. Fungicide formulation, application and disease assessment followed the procedures as described in the Example A.” for “plants.”

[3] = 24 h, 1 Day Protectant, read-out: SEPTTR 1DP (Wheat Leaf Blotch, 1 Day Protectant)
[4] = 72 h, 3 Day Curative, read-out: SEPTTR 3DC (Wheat Leaf Blotch, 3 Day Curative)
[5] = 24 h, 1 Day Protectant, read-out: PUCCRT 1DP (Wheat Brown Rust, 1 Day Protectant)
[6] = 72 h, 3 Day Curative, read-out: PUCCRT 3DC (Wheat Brown Rust, 3 Day Curative)
[7] = 24 h, 1 Day Protectant, read-out: SEPTTR 1DP % Control rating
[8] = 72 h, 3 Day Curative, read-out: SEPTTR 3DC % Control rating
[9] = 24 h, 1 Day Protectant, read-out: PUCCRT 1DP % Control rating
[10] = 72 h, 3 Day Curative, read-out: PUCCRT 3DC % Control rating

| Compound | pest or weed control at 121.5 g/ha [1, 3] | pest or weed control at 121.5 g/ha [1, 4] | pest or weed control at 121.5 g/ha [2, 5] | pest or weed control at 121.5 g/ha [2, 6] | pest or weed control at 100 ppm [1, 7] | pest or weed control at 100 ppm [1, 8] | pest or weed control at 100 ppm [2, 9] | pest or weed control at 100 ppm [2, 10] |
| --- | --- | --- | --- | --- | --- | --- | --- | --- |
| COc1ccnc(C(=O)N[C@@H](C)C(=O)O[C@@H](C)[C@H](Oc2ccc(C(F)(F)F)cc2)c2ccccc2)c1OCOC(C)=O [Example 195] | > 80% | > 80% | > 80% | < 80% | – | – | – | – |
| COc1ccnc(C(=O)N[C@@H](C)C(=O)O[C@@H](C)[C@@H](Oc2ccccc2)c2ccccc2)c1OCOC(C)=O [Example 219] | > 80% | > 80% | > 80% | > 80% | – | – | – | – |
| COc1ccnc(C(=O)N[C@@H](C)C(=O)O[C@@H](C)[C@@H](Oc2ccc(Cl)cc2Cl)c2ccccc2)c1OCOC(C)=O [Example 216] | > 80% | > 80% | > 80% | < 80% | – | – | – | – |
| COc1ccnc(C(=O)N[C@@H](C)C(=O)O[C@@H](C)[C@H](Oc2ccc(Cl)cc2Cl)c2ccccc2)c1OCOC(C)=O [Example 199] | > 80% | > 80% | > 80% | < 80% | – | – | – | – |
| COc1ccnc(C(=O)N[C@@H](C)C(=O)O[C@@H](C)[C@@H](Oc2ccc(Cl)cc2Cl)c2ccccc2)c1OC(=O)C(C)C [Example 215] | < 80% | < 80% | < 80% | < 80% | – | – | – | – |
| COc1ccnc(C(=O)N[C@@H](C)C(=O)O[C@@H](C)[C@@H](Oc2ccccc2)c2cccnc2)c1OC(C)=O [Example 211] | < 0% | < 80% | < 0% | < 80% | – | – | – | – |
| COc1ccnc(C(=O)N[C@H](C(=O)O[C@@H](C)[C@H](Oc2ccc(C(F)(F)F)cc2)c2ccccc2)C(C)C)c1O [Example 126] | – | – | – | – | < 0% | < 80% | < 80% | < 0% |
| COc1ccnc(C(=O)N[C@@H](C)C(=O)O[C@@H](C)[C@H](Oc2cc(F)ccc2F)c2ccccc2)c1O [Example 121] | – | – | – | – | < 80% | > 80% | > 80% | < 80% |
| COc1ccnc(C(=O)N[C@@H](C)C(=O)O[C@@H](C)[C@H](Oc2ccccc2)c2ccc(F)cc2Oc2ccccc2)c1O [Example 178] | – | – | – | – | > 80% | > 80% | > 80% | < 80% |
| COc1ccnc(C(=O)N[C@@H](C)C(=O)O[C@@H](C)[C@H](Oc2cccc(F)c2)c2cccc(-c3ccccc3)c2)c1OC(C)=O [Example 223] | > 80% | > 80% | > 80% | < 80% | – | – | – | – |
| COc1ccnc(C(=O)N[C@@H](C)C(=O)O[C@@H](C)[C@H](Oc2ccc(F)cc2)c2ccccc2)c1O [Example 146] | – | – | – | – | > 80% | > 80% | > 80% | > 80% |
| COc1ccnc(C(=O)N[C@@H](C)C(=O)O[C@@H](C)[C@H](Oc2ccc(C(F)(F)F)cc2)c2ccccc2)c1OC(C)=O [Example 196] | > 80% | > 80% | > 80% | < 80% | – | – | – | – |
| COc1ccnc(C(=O)N[C@@H](C)C(=O)O[C@@H](C)[C@H](Oc2cc(F)cc(Cl)c2)c2ccccc2)c1OCOC(C)=O [Example 206] | > 80% | > 80% | > 80% | < 80% | – | – | – | – |
| COc1ccnc(C(=O)N[C@@H](C)C(=O)O[C@@H](C)[C@@H](Oc2ccc(Cl)cc2Cl)c2ccccc2)c1O [Example 134] | – | – | – | – | > 80% | < 80% | > 80% | > 80% |
